We go through twelve compounds from ChEMBL document CHEMBL1142434, “Novel prostaglandin D synthase inhibitors generated by fragment-based drug design” (J Med Chem, 2008).

The structures appear in SMILES notation.

The subject of the first series is LAD2. The experiment in a line: Inhibition of PMA/ionomycin-induced PDG2 synthesis in human LAD2 cells. The class given is functional, cell-based.
The term EC50 denotes the concentration that produces a half-maximal response. Read a high EC50 as a less potent agent. For the compound `c1ccc(-c2ncc(-c3cc[nH]n3)s2)cc1`, a half-maximal response (EC50) required 1.7 µM. This lies in the single-digit micromolar range.

Tested on in another series: not listed separately
In words: Toxicity against PMA/ionomycin treated human LAD2 cells assessed as cellular viability. The class given is cell-based.
Take `c1ccc(-c2ncc(-c3cc[nH]n3)s2)cc1`: the Activity result was “Non-toxic”.

In the next series the target is Hematopoietic prostaglandin D synthase (Homo sapiens, UniProt O60760). In words: Inhibition of glutathione-S-transferase activity of prostaglandin D2 synthase.
Hematopoietic prostaglandin D synthase, sequence (O60760 whole entry): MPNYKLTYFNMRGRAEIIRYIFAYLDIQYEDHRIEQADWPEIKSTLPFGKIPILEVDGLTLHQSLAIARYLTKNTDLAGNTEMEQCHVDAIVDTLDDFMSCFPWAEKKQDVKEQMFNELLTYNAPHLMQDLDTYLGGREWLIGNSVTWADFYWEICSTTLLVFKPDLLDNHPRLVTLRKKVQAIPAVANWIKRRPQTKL
A word on the IC50: it is the concentration at which inhibition is half-maximal. Lower therefore signals higher potency. On to `O=C1c2ccccc2-c2nnc(-c3ccc(O)cc3)cc21`, for which inhibition was half-maximal at 3.8 µM (IC50).
Consider `Cc1ccc(NC(=O)c2cc(-c3ccccc3)ns2)cc1NC(=O)c1cccc(CN2CCN(C)CC2)c1`, for which the IC50 was 0.075 µM.
Take `Cc1ccc(-c2cc[nH]n2)cn1`: the midpoint of inhibition, the IC50, lay at 34.7 µM. Against the preceding compound, the IC50 is about 460-fold higher.
`CCOC(=O)c1cc(O)c(-c2ccccc2)nn1` came in with an IC50 of 45 µM.
In the case of `COc1ccc(C(=O)CBr)c2ccccc12`, the half-inhibitory concentration (IC50) was determined as 12.4 µM.
Consider `Oc1c(Cl)cc(Cl)cc1-c1cc[nH]n1`, for which the IC50 was 17.4 µM.
With `Cc1ccc(-c2cc3c(nn2)-c2ccccc2C3=O)cc1`, the IC50 is 3.8 µM.
Same read-out and setting: as for `COc1ccccc1-c1csc(Nc2ccc(C(=O)O)cc2)n1`, the figure is 0.994 µM; as for `COc1ccc(-c2cnn(-c3ccccc3)c2N)cc1OC`, 33 µM.
In the case of `Cc1cc(C)c(-c2cc[nH]n2)[nH]1`, half-maximal inhibition (IC50) required 26.4 µM. This IC50 and that of the compound before are within 1.5-fold of each other.
In turn, `COC(=O)c1ccc(-c2nnc(-c3ccncc3)[nH]2)nc1` gave an IC50 of 1.5 µM.
